Key:
[1] = test system: mice deficient for vascular endothelial cell-specific Fli1 (Fli1 flox/flox; Tie2-Cre); experiment: Extravasation of Evans blue dye in vascular endothelial cell-specific Fli1 deficient mice; type: in vivo; conditions: vascular endothelial cell-specific Fli1 knockout mice; intraperitoneal administration, two weeks; absorbance at 620 nm
Procedure: Subsequently, under the same conditions as in Example 1, monoammonium glycyrrhizinate or PBS was intraperitoneally administered to 10-week-old mice deficient for vascular endothelial cell-specific Fli1 (Fli1 flox/flox; Tie2-Cre: see American Journal of Pathology, April 2010 Volume 176, Issue 4, p 1983-1998), which are model mice for angiopathy in scleroderma, or to control mice (Fli1 flox/flox). Two weeks later, 200 μl of Evans blue dye (0.5% in PBS) was administered into the tail vein of each mouse, and the mouse was euthanized 30 minutes thereafter, followed by incision of the skin from the middle of the abdomen. Cutaneous blood vessels were macroscopically observed from the dermal side to evaluate the degree of leakage of the dye. Further, for measurement of extravasation of Evans blue, skin was collected from three positions using a skin biopsy punch with a diameter of 4 mm, and then allowed to dissolve in formamide at 37° C. for 24 hours, followed by measurement of the absorbance at a wavelength of 620 nm using a microplate reader.

[2] = test system: BLM-induced scleroderma model mice; experiment: Endothelial-to-mesenchymal transition (Endo-MT) in skin of BLM-induced scleroderma model mice (VE-cadherin/FSP1 immunostaining, Snail1 mRNA); type: in vivo
Procedure: Paraffin sections were prepared using skin samples of the injection site of BLM-induced scleroderma model mice prepared under the same conditions as in Example 1. A rabbit anti-VE-cadherin antibody (Santa Cruz Biotechnolog) and a goat anti-fibroblast-specific protein 1 (FSP1) antibody (abcam, Cambridge, UK) as primary antibodies, and an FITC-conjugated donkey anti-rabbit IgG antibody (Santa Cruz Biotechnolog) and an Alexa Fluor donkey 555 anti-goat IgG antibody (Invitrogen, Carlsbad, Calif., USA) as secondary antibodies, were reacted with the sections, and nuclear staining was performed using Vectashield with DAPI (Vector Laboratories, Burlingame, Calif., USA). Observation was carried out using Bio Zero BZ-8000 (Keyence, Osaka, Japan) at wavelengths of 495 nm (green), 565 nm (red), and 400 nm (blue). The number of cells stained with both FSP1 and VE-Cadherin, which are observed as green color and red color, respectively (cells that had undergone Endo-MT), was compared. Further, from the skin samples, RNA was extracted by the same method as in Example 1, and the mRNA level of Snail1 was measured. Primers having the following sequences were used.

[3] = test system: BLM-induced scleroderma model mice; experiment: Study on fibrosis in BLM-induced scleroderma model mice (dermal thickness, collagen, α-SMA-positive fibroblasts, skin mRNA); type: in vivo, C57BL/6 mice
Procedure: To the skin of the back of 8-week-old C57BL/6 mice (wild type), 1 mg/ml bleomycin (BLM) solution prepared with phosphate buffered saline (PBS) was intracutaneously injected at a dose of 300 μg every day for four weeks to prepare BLM-induced scleroderma model mice. A control group was provided by subcutaneous injection of the same amount of PBS. At the same time, monoammonium glycyrrhizinate (Cokey Co., Ltd.) dissolved in PBS was intraperitoneally administered at a dose of 30 mg/kg every day for four weeks. A control group was provided by intraperitoneal administration of the same amount of PBS. Using a skin biopsy punch with a diameter of 6 mm, the skin tissue at the injection site was collected, and subjected to Hematoxylin & Eosin staining to measure the dermal thickness. Further, a skin sample collected by the same method was subjected to quantification of the collagen content using a QuickZyme Total Collagen Assay kit (QuickZyme BioSciences B.V., Netherlands).
Paraffin sections were prepared using the skin of the back at the injection site of each BLM-induced scleroderma model mouse, and reacted with an anti-α-smooth muscle actin (α-SMA) antibody (Sigma-Aldrich, St. Louis, Mo., USA) according to the manufacturer's instruction provided for the VEVTOR M.O.M Immunodetection Kit (Vector laboratories, Burlingame, Calif., USA), followed by coloring with DAB (0.2 mg/ml, DOJINDO LABORATORIES, Kumamoto, JAPAN). For each mouse skin sample, three photographs of the superficial dermal layer were randomly taken for ×400 viewing areas, and the numbers of spindle-shaped cells positive for α-SMA were counted. Their average was regarded as the number of α-SMA-positive fibroblasts in the mouse. Comparison was made between the glycyrrhizic acid group and the control group.
Further, RNA was extracted from the skin of the back at the injection site of each BLM-induced scleroderma model mouse using an RNeasy min kit (Qiagen Valencia, Calif., USA), and then reverse-transcribed into cDNA using iScript cDNA Synthesis Kits (Bio-Rad, Hercules, Calif., USA). Measurement by quantitative real-time PCR was carried out using a SYBR Green PCR Master Mix (Life technologies) with ABI prism 7000 (Life technologies). The measurement was carried out in triplicate for each sample to calculate the average value. As a reference gene, Gapdh was used. The relative expression level of mRNA of the subject gene was calculated by the ^ΔΔCt method. Primers having the following sequences were used.

[4] = test system: BLM-induced scleroderma model mice; experiment: Study on inflammation and immune abnormality in BLM-induced scleroderma model mice (FACS of CD4-positive cells, skin cytokine mRNA); type: in vivo
Procedure: BLM-induced scleroderma model mice were prepared by the same treatment as in Example 1 except that the bleomycin administration treatment was carried out for only one week. On the last day of the administration, bilateral inguinal lymph nodes and the spleen were removed from each mouse. After mashing the lymph nodes, lymphocytes were separated therefrom. To blood cells removed from the spleen, RBC lysis buffer (0.0017 M Trizma, Sigma-Aldrich, 0.1 M NH4Cl 2.675 g, Sigma-Aldrich) was added to separate lymphocytes. The lymphocytes were subjected to staining of surface antigens using an anti-CD3 antibody (17A2), anti-CD4 antibody (RM4-5), and anti-CD8a antibody (53-6.7). Further, stimulation was carried out with 10 ng/ml phorbol myristate acetate (Sigma-Aldrich), 1 μg/ml ionomycin (Sigma-Aldrich), and 1 μg/ml brefeldin A ([…]; BD PharMingen) for four hours, and staining of intracellular antigens was carried out using an anti-interleukin (IL)-4 antibody (11B11), anti-IL17A antibody (TC11-18HC0.1), and anti-interferon (IFN)-γ antibody (XMG1.2) (all antibodies were manufactured by BioLegend, San Diego, Calif., USA). The stained lymphocytes were analyzed using a FACS Verseflow cytometer (BD Biosciences).
Further, from the skin of the back at the injection site of each BLM-induced scleroderma model mouse, RNA was extracted by the same method as in Example 1, and the mRNA levels of IL4, IL1 b, and arginase were measured. Primers having the following sequences were used.

[5] = skin of BLM-induced scleroderma model mice, quantitative real-time PCR
[6] = lymph nodes or spleen, BLM for one week, FACS
[7] = skin tissue of BLM-induced scleroderma model mice

CC1(C)[C@@H](O[C@H]2O[C@H](C(=O)O)[C@@H](O)[C@H](O)[C@H]2O[C@@H]2O[C@H](C(=O)O)[C@@H](O)[C@H](O)[C@H]2O)CC[C@]2(C)[C@H]3C(=O)C=C4[C@@H]5C[C@@](C)(C(=O)O)CC[C@]5(C)CC[C@@]4(C)[C@]3(C)CC[C@@H]12 [glycyrrhizic acid]
extravasation of Evans blue [1]: significantly decreased
mRNA level of Snail1 [2]: significantly decreased
increase in cells that have undergone Endo-MT (stained for both VE-cadherin and FSP1) ([2]; immunostaining): suppressed
number of myofibroblasts (α-SMA-positive fibroblasts) in the skin ([3]; BLM-induced scleroderma model mice, 30 mg/kg i.p. daily, four weeks): significant decrease
dermal thickness (thickening of the dermis) ([3]; BLM-induced scleroderma model mice, 30 mg/kg intraperitoneally every day for four weeks): reduced
amount of collagen fibers ([3]; BLM-induced scleroderma model mice, skin at injection site, 30 mg/kg i.p. daily, four weeks): decreased
amount of collagen fibers ([3]; control mice not subjected to BLM induction, 30 mg/kg i.p. daily, four weeks): did not cause any change
dermal thickness ([3]; control mice not subjected to BLM induction, 30 mg/kg intraperitoneally every day for four weeks): did not cause any change
mRNA of Col1a1 [3, 5]: significant decreases
mRNA of Col1a2 [3, 5]: significant decreases
mRNA of Col3a1 [3, 5]: significant decreases
mRNA of Mmp13 (collagenase) [3, 5]: significant increase
mRNA of thrombospondin (Thbs1) [3, 5]: decrease
ratio of IFN-γ-positive cells among CD4-positive cells [4, 6]: did not cause any change
ratio of IL17A-positive cells among CD4-positive cells [4, 6]: did not cause any change
ratio of IL4-positive cells among CD4-positive T cells ([4]; lymph nodes, BLM for one week, FACS): significant decreases
mRNA of arginase (marker for M2 macrophages) [4, 7]: decreased
mRNA of interleukin 1 b [4, 7]: decreased
mRNA of interleukin 4 [4, 7]: decreased
ratio of IL4-positive cells among CD4-positive T cells ([4]; spleen, BLM for one week, FACS): significant decreases

From US20180303859A1, “Agent For Preventing And/Or Treating Scleroderma” (THE UNIVERSITY OF TOKYO, priority 2015, published 2018)
